Reference: patent US8420052B2, “Imaging agents useful for identifying AD pathology” (Siemens Medical Solutions USA, Inc., priority 2008, dated 2013)

Experiments:
[1] = Mouse brain microPET imaging; format: in vivo, mice
Method: Mouse Brain MicroPET Imaging
FIGS. 11 and 12 show the results of mouse brain imaging with 18F-W372 in WT and APP mice. […] There is not much difference between APP and WT mice, but both App mice do appear to be slightly better retained after 13 min (App:WT=1.5:1).
FIGS. 14a and 14b show a comparison of brain uptake between 18F-PiB and 18F-W372 using dynamic microPET scanning in young and old mice. […] The rapid washout of [18F]W372 is presumably a major factor for its low non-specific binding, yet the washout is slow enough to distinguish WT from APP.

[2] = Mouse metabolism studies (organ uptake and metabolites); format: in vivo; conditions: mice, tail-vein
Method: Approximately 400 μCi of [F-18]W372 (at a volume of 200 μL) was injected via tail-vein into mice. The animals were sacrificed at 5 minutes (n=3) and 30 minutes (n=3) post-injection. Whole blood was obtained, weighed, and centrifuged at 13,000 RPM (3 minutes) to isolate plasma. The brain, kidneys, and liver were harvested, weighed, and homogenized in lysis buffer. 400 μL of each sample was subsequently removed, mixed with an equal volume of chloroform/methanol (1:1), vigorously vortexed, and placed on dry ice for 3 minutes. After thawing, another centrifugation step at 13,000 RPM (7 minutes) allowed for the separation of lipid (CHCl3) and aqueous (MeOH/H2O) phases. The hydrophobic and hydrophilic fractions were then removed, counted for radioactivity in a PerkinElmer Wizard gamma counter, and finally analyzed by Radio-HPLC (Raytest GmbH/Agilent).

[3] = target: synthetic beta-Amyloid-42 (Homo sapiens, UniProt P05067); assay: Amyloid fibril (synthetic A-Beta42) binding assay; conditions: 10 uM synthetic beta-Amyloid-42, 90 min; compared with 18F-PiB
synthetic beta-Amyloid-42, sequence (P05067 672-713 limits assumed): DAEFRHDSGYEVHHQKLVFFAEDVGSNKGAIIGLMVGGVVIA
Method: Amyloid Fibril (Synthetic A-Beta42) Binding Assay Incubation of various concentration of [F18]-compound (starting with 200 nM cold compound and 100 μCi of F18-compound) with or without 10 μM of synthetic beta-Amyloid-42 for 90 min Filter through G/F glass fiber, wash filter 2 times with 20% ethanol/PBS at room temperature, count the radioactivity, and measure the KD value.

[4] = tested on: human brain slices from AD patients; assay: Grey to white matter binding of tracers on human AD brain slices under various washing conditions; conditions: EtOH:water washes
Method: A study was conducted to examine the grey to white matter binding ratios for 2 different tracers: 18F-W372 and 18F-PiB. After the human brain slices from AD patients were incubated with a given tracer for 1 hr, the slices were washed with various EtOH:water solutions in an attempt to optimize the grey to white matter ratios. The results were surprising and unexpected in view of previous work performed by other researchers.

[5] = tested on: amyloid plaques and fibrils in human brain slices; assay: Human brain slice competition assay using autoradiography; format: binding; conditions: radiolabeled tracer approx. 20 uCi, 90 min rt, lower = more displacement; for _max high dose (percent dose remaining relative to control with no blocker): blocker 2.5 uM; for _max low dose (percent dose remaining relative to control with no blocker): blocker 0.25 uM
Method: Human Brain Slice Competition Assay Using Autoradiography
Briefly, 5 micron thick human brain slices from regions of the brain bearing high amyloid plaque and fibril burden were incubated with approximately 20 uCi of a radiolabeled tracer in 2.5%:2.5%:95% DMSO:EtOH:PBS in the presence of blocker (2.5 and 0.25 uM total concentration) or absence of blocker (control). The slices were incubated at rt for 90 min. The slices were then quickly washed in PBS, followed by 70% EtOH:PBS for 2 min, then 30% EtOH:PBS for 2 min and then quickly washed with PBS. The slices were dried for 30 min and then exposed on autoradiographic film for 20 min. The brain slices were then removed from the slide and the radioactivity counted in a gamma counter. The percent dose remaining, relative to a control with no blocker, at 0.25 uM is represented in the “_max low dose” column. The percent dose remaining, relative to a control with no blocker, at 2.5 uM is represented in the “_max high dose” column.

[6] = target: 18F-PiB binding sites, amyloid plaque and fibril in human brain slices (Homo sapiens, UniProt P05067); assay: Human AD brain slice competition against 18F-PiB (IC50); conditions: for IC50: tracer 18F-PiB, human AD brain slices, blocker 0.01 to 10 uM
18F-PiB binding sites, amyloid plaque and fibril in human brain slices, sequence (P05067 672-711 limits assumed): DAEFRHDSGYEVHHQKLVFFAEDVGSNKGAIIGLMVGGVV
Method: (§1) The slices were incubated at room temperature for 90 min. The slices were then quickly washed in PBS, followed by 70% EtOH:PBS for 2 min, then 30% EtOH:PBS for 2 min and then quickly washed with PBS. The slices were dried for 30 min and then exposed on autoradiographic film for 20 min. The brain slices were then removed from the slide and the radioactivity counted in a gamma counter. The percentage of blocking versus the concentrations of blocker was then plotted, and IC50 was calculated based on the curve.

[7] = target: 18F-W372 binding sites, amyloid plaque and fibril in human brain slices (Homo sapiens, UniProt P05067); assay: Human AD brain slice competition against 18F-W372 (IC50); conditions: tracer 18F-W372, blocker 0.01 to 10 uM
18F-W372 binding sites, amyloid plaque and fibril in human brain slices, sequence (P05067 whole entry): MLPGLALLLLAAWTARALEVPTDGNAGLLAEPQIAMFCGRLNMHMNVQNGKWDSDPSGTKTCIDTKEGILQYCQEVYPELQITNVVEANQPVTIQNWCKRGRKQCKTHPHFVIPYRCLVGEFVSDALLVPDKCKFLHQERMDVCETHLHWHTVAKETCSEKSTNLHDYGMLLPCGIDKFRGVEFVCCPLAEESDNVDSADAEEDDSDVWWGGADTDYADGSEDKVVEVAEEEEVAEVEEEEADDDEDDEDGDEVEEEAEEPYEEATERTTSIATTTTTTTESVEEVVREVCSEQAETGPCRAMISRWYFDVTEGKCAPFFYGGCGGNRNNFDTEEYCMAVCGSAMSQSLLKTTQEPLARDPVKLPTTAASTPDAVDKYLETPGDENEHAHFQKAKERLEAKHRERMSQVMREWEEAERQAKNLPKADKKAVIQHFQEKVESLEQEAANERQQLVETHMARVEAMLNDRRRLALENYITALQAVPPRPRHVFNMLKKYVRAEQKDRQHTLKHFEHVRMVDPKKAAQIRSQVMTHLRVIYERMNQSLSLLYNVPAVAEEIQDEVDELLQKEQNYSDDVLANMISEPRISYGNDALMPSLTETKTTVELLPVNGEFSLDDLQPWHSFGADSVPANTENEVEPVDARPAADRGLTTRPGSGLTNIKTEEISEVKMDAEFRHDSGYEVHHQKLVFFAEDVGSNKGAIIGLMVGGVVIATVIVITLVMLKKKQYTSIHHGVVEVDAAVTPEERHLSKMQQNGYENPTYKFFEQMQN
Method: as §1

| SMILES | _max high dose (percent dose remaining relative to control with no blocker) [5] | _max low dose (percent dose remaining relative to control with no blocker) [5] | further results |
| --- | --- | --- | --- |
| COc1ccc2c(n1)sc1nc(-c3ccc([18F])nc3)cn12 [Compound 18F-W372] | – | – | brain washout (microPET) ([1]; 30 minute dynamic scans, young/old, WT/App mice): sufficiently slow washout such that one can distinguish WT from APP mice; brain uptake (microPET) ([1]; WT and APP mice): > 9 % ID/g; brain uptake ([2]; 5 minutes post-injection): 3.8 % ID/g; brain uptake ([2]; 30 minutes post-injection): 0.47 % ID/g; KD value, synthetic amyloid fibril [3]: lower KD value compared with the known compound 18F-PiB; grey to white matter binding ratios ([4]; 1 hr incubation): excellent grey to white matter binding ratios; non-specific (white matter) binding [4]: lower non-specific binding than 18F-PiB |
| CNc1ccc(-c2ccc3scnc3c2)cc1 [Compound W189, 4-(benzo[d]thiazol-5-yl)-N-methylaniline] | 9.53% | – | – |
| COc1ccc2c(n1)sc1nc(-c3ccc(F)cc3)cn12 [Compound W332] | – | – | IC50 [6]: 79 nM |
| COc1ccc2c(n1)sc1nc(-c3ccc(F)nc3)cn12 [Compound W372, 7-Methoxy-2(6-fluoropyridin-3-yl)imidazo[2,1-b]8-pyridinothiazole] | – | – | competition with 18F-PiB for binding sites / binding affinity relative to PiB ([6]; human AD brains): strongly competes with 18F-PiB for binding sites in human AD brains; IC50 [6]: 73 nM; IC50 [7]: 37 nM |
| COc1ccc2c(c1)oc1nc(-c3ccc(F)cn3)cn12 [Compound W380, 7-methoxy-2-(5-fluoro-2-pyridyl)-imidazo[2,1-b]benzoxazole] | – | – | IC50 [6]: 73 nM |
| COc1ccc2c(n1)oc1nc(-c3ccc(F)cc3)cn12 [Compound W386, 7-Methoxy-2(4-fluorophenyl)imidazo[2,1-b]8-pyridino-oxazole] | – | – | IC50 [6]: 210 nM; IC50 [7]: 71 nM |
| COc1ccc2c(c1)sc1nc(-c3ccc(F)nc3)cn12 [Compound W388] | – | – | IC50 [7]: 150 nM |
| COc1ccc2c(n1)sc1nc(-c3ccc(F)c(O)c3)cn12 [Compound W389] | – | – | IC50 [6]: 130 nM |
| COc1ccc2c(n1)sc1nc(-c3cnc(F)cn3)cn12 [Compound W392, 7-methoxy-2(2-fluoropyrazin-5-yl)imidazo[2,1-b]8-pyridinothiazole] | – | – | IC50 [7]: 210 nM |
| COc1ccc2c(n1)oc1nc(-c3ccc(F)nc3)cn12 [Compound W393] | – | – | IC50 [7]: 170 nM |
| FCCOCCOCCOc1ccc2c(c1)[nH]c1c3ccccc3sc21 [DHK4-57] | 30.70% | 81.06% | – |
| FCCOCCOCCOc1ccc2c(c1)[nH]c1ncccc12 [DHK4-58] | 85.78% | 88.82% | – |
| CNc1ccc2c(c1)[nH]c1cc(O)ccc12 [GC3125] | 18.59% | 47.08% | – |
| FCCCCOc1cccc(-c2cc3ccccn3c2)c1 [IN3] | 67.27% | 98.13% | – |
| CN(CCF)c1ccc(/C=C2/C(=O)Nc3ccccc32)cc1 [OX-2, (E)-3-(4-((2-fluoroethyl)(methyl)amino)benzylidene)indolin-2-one] | 82.78% | 68.22% | – |
| FCCNc1nc(-c2ccc3ccccc3c2)cs1 [TZ001, N-(2-fluoroethyl)-4-(naphthalen-2-yl)thiazol-2-amine] | 52.00% | 98.06% | – |
| COc1ccc(-n2c(=O)sc3ccccc32)cc1 [UG470, 3-(4-methoxyphenyl)benzo[d]thiazol-2(3H)-one] | 79.87% | 81.29% | – |
| CN(C)c1ccc(-c2ncc(/C=C/c3ccc(O)cc3)s2)cc1 [UG-4-69, (E)-4-(2-(2-(4-(dimethylamino)phenyl)thiazol-5-yl)vinyl)phenol] | 31.02% | 69.79% | – |
| O=CNc1ccc2c(c1)[nH]c1cc(OCc3ccccc3)ccc12 [WZ01169] | 36.55% | 42.09% | – |
| Nc1nc(-c2ccc3ccccc3c2)cs1 [w18] | 27.86% | 69.20% | – |
| Oc1ccc2c(c1)[nH]c1cc(NCCF)ccc12 [w78] | 63.32% | 99.49% | – |
